Data taken from ChEMBL document CHEMBL1144874, “Exploring structure-activity relationships of transition state analogues of human purine nucleoside phosphorylase” (J Med Chem, 2003).

Legend:
[1] = biological target: T1, Purine nucleoside phosphorylase (Homo sapiens, UniProt P00491)
T1 sequence (P00491 whole entry): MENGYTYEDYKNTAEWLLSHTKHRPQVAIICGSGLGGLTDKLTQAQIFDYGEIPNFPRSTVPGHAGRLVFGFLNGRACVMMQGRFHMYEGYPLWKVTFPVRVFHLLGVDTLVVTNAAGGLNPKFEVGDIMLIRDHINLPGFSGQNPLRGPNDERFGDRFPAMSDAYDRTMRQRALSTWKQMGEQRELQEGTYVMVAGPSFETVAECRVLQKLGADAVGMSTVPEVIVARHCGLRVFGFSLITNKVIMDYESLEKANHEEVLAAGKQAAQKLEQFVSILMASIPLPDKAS
Description: Inhibition of human purine nucleoside phosphorylase; Initial rate.

[2] = biological target: T1, Purine nucleoside phosphorylase; remark: listed apart in the source
Description: Equilibrium dissociation constant determined against human purine nucleoside phosphorylase (PNP) after slow-onset inhibition

SMILES | Ki [1] | Ki [2]
Cc1nc2c(O)[nH]cnc-2c1[C@@H]1N[C@H](CO)[C@H](O)C1O (stereo partly drawn) | 10.1 nM | 
Nc1nc(O)c2[nH]cc([C@H]3C[C@@H](O)[C@@H](CO)N3)c2n1 | 0.22 nM | 
C[C@H]1N[C@@H](c2c[nH]c3c(=O)[nH]cnc23)C(O)[C@H]1O (stereo partly drawn) | 25 nM | 
Nc1[nH]cnc2c(C[C@@H]3N[C@H](CO)[C@H](O)C3O)cnc1-2 (stereo partly drawn) | > 30000 nM | 
OC[C@H]1N[C@@H](c2n[nH]c3c(O)ncnc23)[C@H](O)[C@@H]1O | 1.4 nM | 0.18 nM
Nc1nc2c([C@@H]3N[C@H](CO)[C@@H](O)[C@H]3O)c[nH]c2c(=O)[nH]1 | 0.54 nM | 0.042 nM
OC[C@H]1N[C@@H](Cc2c[nH]c3c(O)ncnc23)C(O)[C@H]1O (stereo partly drawn) | 250 nM | 
COc1[nH]cnc2c([C@@H]3N[C@H](CO)[C@H](O)C3O)cnc1-2 (stereo partly drawn) | 4.7 nM | 

More lines, main results first:

Ki [1] | SMILES | Ki [2]
0.25 nM | OC[C@H]1N[C@@H](c2c[nH]c3c(O)ncnc23)C[C@H]1O | 
81 nM | Oc1ncnc2c([C@@H]3N[C@H](CF)[C@H](O)C3O)c[nH]c12 (stereo partly drawn) | 7 nM
5.9 nM | COC1[C@@H](O)[C@@H](CO)N[C@H]1c1c[nH]c2c(=O)[nH]cnc12 (stereo partly drawn) | 
9.5 nM | OC[C@@H]1CC(O)[C@H](c2c[nH]c3c(O)ncnc23)N1 (stereo partly drawn) | 
1.4 nM | OC[C@H]1N[C@@H](c2c[nH]c3c(O)ncnc23)C(F)(F)[C@H]1O | 
5.6 nM | OC[C@H]1N[C@@H](c2c(F)[nH]c3c(O)ncnc23)C(O)[C@H]1O (stereo partly drawn) | 0.39 nM
415 nM | CCCN1[C@H](CO)[C@H](O)C(O)[C@@H]1c1c[nH]c2c(O)ncnc12 (stereo partly drawn) | 
4.7 nM | Cn1cc([C@@H]2N[C@H](CO)[C@H](O)C2O)c2ncnc(O)c21 (stereo partly drawn) | 
2.84 nM | OC[C@@H]1[C@H](O)C(O)CN1Cc1c[nH]c2c(O)ncnc12 (stereo partly drawn) | 
12700 nM | OC[C@@H]1[C@H](O)C(O)CN1c1c[nH]c2c(O)ncnc12 (stereo partly drawn) | 
24.7 nM | OC[C@H]1N[C@@H](c2c[nH]c3c(S)ncnc23)C(O)[C@H]1O (stereo partly drawn) | 
